Experiment [1] concerns FoxO3a. Put plainly: FoxO3a inhibition assay (GFP-FoxO3a nuclear to cytoplasmic translocation) in U2OS GFP-FoxO3a H212R reporter cells. In kind it is cell-based. The following applies: serum starved overnight, 30 minutes compound treatment, ratio of nuclear to cytosolic GFP intensity, AC50 = concentration that results in 50% activation or inhibition, read-out: FoxO AC50. Here is the method: (§1) Phosphorylation of Akt on S473 and FoxO3a nuclear to cytoplasmic translocation were used as readouts of PI3K/Akt/mTOR pathway activation downstream of growth factor signaling.
(§2) Reporter cell line. U2OS GFP-FoxO3a H212R reporter cell line was established by transducing U2OS cells with the retroviral plasmid pLEGFP-C1 containing FoxO3a H212R transgene and selecting for G418 resistant clones.
(§3) Reporter assay. U2OS GFP-FoxO3a H212R cells were plated in 384-well plates at 4000 cells per well in 30 microliters of McCoy's 5A medium containing 10% FBS. On day 1 the cells were washed with serum free medium and serum starved overnight. On day 2 the cells were treated with different doses of the compounds for 30 minutes, fixed with 4% Paraformaldehyde for 1 hour and stained with Phospho-AKT (Ser473) antibody (Cell Signaling Technology, catalog #4060) overnight at 4° C. After nuclei staining with Hoechst 33342 (Life Technologies, catalog # H3570) the plates were imaged with InCell 2000 (GE Healthcare Bio-Sciences). FoxO3a inhibition activity is calculated as the ratio of nuclear to cytosolic GFP intensity in percent. Akt activation is measured as the total cellular intensity of Phospho-Akt antibody staining in percent. DMSO control is set as 0% activity.

Experiment [2] deals with Akt. Put plainly: Akt activation assay (Phospho-AKT (Ser473) antibody staining) in U2OS GFP-FoxO3a H212R reporter cells. As to conditions: serum starved overnight, 30 minutes compound treatment, total cellular intensity of Phospho-Akt (Ser473) antibody staining, AC50 = concentration that results in 50% activation or inhibition. It is filed as cell-based. Here is the method:
as §1, §2, §3

Like-named read-outs stand apart in the source and are kept apart here.

By AC50 is commonly meant the concentration giving half of the maximal activity seen. Turning to `Cc1cc(C(N)=O)nn1-c1ccc(Cc2ccc(C3CCN(C)C3)cc2)cc1` (single isomer, unassigned) [Example 5-1, 5-methyl-1-(4-(4-(1-methylpyrrolidin-3-yl)benzyl)phenyl)-1H-pyrazole-3-carboxamide], the AC50 was 295 nM in experiment [1] and 1320 nM in experiment [2] (Homo sapiens, 0.5 h). Take `Cc1cc(C(N)=O)nn1-c1ccc(Cc2ccc(C3CCN(C)C3)cc2)cc1` (single isomer, unassigned) [Example 5-2, 5-methyl-1-(4-(4-(1-methylpyrrolidin-3-yl)benzyl)phenyl)-1H-pyrazole-3-carboxamide]: the AC50 in experiment [1] turned out to be 792 nM; in experiment [2] it was 2500 nM. Take `Cc1nc(C(N)=O)nn1-c1ccc(C(C)(C)c2ccc(Cl)cc2)cc1` [Example 1, 1-(4-(2-(4-chlorophenyl)propan-2-yl)phenyl)-5-methyl-1H-1,2,4-triazole-3-carboxamide]: the AC50 in experiment [1] (Homo sapiens, 0.5 h) came to 576 nM; in experiment [2] (Homo sapiens, 0.5 h) it was 1550 nM. Turning to `Cc1cc(C(N)=O)nn1-c1ccc(Cc2ccc3c(c2)OCc2ccccc2-3)cc1` [Example 2, 1-(4-((6H-benzo[c]chromen-3-yl)methyl)phenyl)-5-methyl-1H-pyrazole-3-carboxamide], the AC50 in experiment [1] (Homo sapiens, 0.5 h) was 137 nM; in experiment [2] (Homo sapiens, 0.5 h), 326 nM. Consider `Cc1cc(C(N)=O)nn1-c1ccc(Cc2ccc(-c3ccc(CN4CCCC4)cc3)cc2)cc1` [Example 3-1, 5-methyl-1-(4-((4′-(pyrrolidin-1-ylmethyl)-[1,1′-biphenyl]-4-yl)methyl)phenyl)-1H-pyrazole-3-carboxamide], for which the AC50 is 36 nM in experiment [1] (Homo sapiens, 0.5 h) and 135 nM in experiment [2] (Homo sapiens, 0.5 h). The matching figures for `CCN(CC)Cc1ccc(-c2ccc(Cc3ccc(-n4nc(C(N)=O)cc4C)cc3)cc2)cc1` [Example 3-2, 1-(4-((4′-((diethylamino)methyl)-[1,1′-biphenyl]-4-yl)methyl)phenyl)-5-methyl-1H-pyrazole-3-carboxamide]: 236 nM and 341 nM. The matching figures for `Cc1cc(C(N)=O)nn1-c1ccc(Cc2ccc(-c3ccc4c(c3)CCN(C)C4)cc2)cc1` [Example 3-3, 5-methyl-1-(4-(4-(2-methyl-1,2,3,4-tetrahydroisoquinolin-6-yl)benzyl)phenyl)-1H-pyrazole-3-carboxamide]: 40 nM and 109 nM.

For the compound `Cc1cc(C(N)=O)nn1-c1ccc(Cc2ccc(-c3ccc4c(c3)CNC4)cc2)cc1` [Example 3-4, 1-(4-(4-(isoindolin-5-yl)benzyl)phenyl)-5-methyl-1H-pyrazole-3-carboxamide], the AC50 in experiment [1] (Homo sapiens, 0.5 h) is 75 nM; in experiment [2] (Homo sapiens, 0.5 h), 268 nM.

Consider `Cc1nc(C(N)=O)nn1-c1ccc(Cc2ccc(-c3ccc(CN4C[C@@H](C)N[C@@H](C)C4)cc3)cc2)cc1` [Example 39-19], for which the AC50 in experiment [1] (Homo sapiens, 0.5 h) was found to be 65 nM. In the case of `Cc1nc(C(N)=O)nn1-c1ccc(Cc2ccc(-c3ccc(CN4CCC(F)(F)CC4)cc3)cc2)cc1` [Example 39-20], the concentration at half-maximal activity (AC50) in experiment [1] (Homo sapiens, 0.5 h) amounted to 140 nM. For the compound `Cc1nc(C(N)=O)nn1-c1ccc(Cc2ccc(-c3ccc(CN4CCN5CCCCC5C4)cc3)cc2)cc1` (centres unmarked) [Example 39-21], the AC50 in experiment [1] (Homo sapiens, 0.5 h) came to 60 nM. Take `Cc1nc(C(N)=O)nn1-c1ccc(Cc2ccc(-c3ccc(CN4CCCC[C@H]4CO)cc3)cc2)cc1` [Example 39-22]: the concentration at half-maximal activity (AC50) in experiment [1] (Homo sapiens, 0.5 h) worked out at 98 nM.

For the compound `Cc1nc(C(N)=O)nn1-c1ccc(Cc2ccc(-c3ccc(CN4CCC(CO)CC4)cc3)cc2)cc1` [Example 39-23], the concentration at half-maximal activity (AC50) in experiment [1] (Homo sapiens, 0.5 h) is 18 nM. For `Cc1nc(C(N)=O)nn1-c1ccc(Cc2ccc(-c3ccc(CN4CC(C)(O)C4)cc3)cc2)cc1` [Example 39-24], the AC50 in experiment [1] (Homo sapiens, 0.5 h) was found to be 406 nM. Take `Cc1nc(C(N)=O)nn1-c1ccc(Cc2ccc(-c3ccc(CN4CCC(O)CC4)cc3)cc2)cc1` [Example 39-25]: the AC50 in experiment [1] (Homo sapiens, 0.5 h) is 105 nM. Same read-out and setting: to `Cc1nc(C(N)=O)nn1-c1ccc(Cc2ccc(-c3ccc(CN4C[C@H]5COC[C@H]5C4)cc3)cc2)cc1` [Example 39-26] belongs 31 nM; to `Cc1nc(C(N)=O)nn1-c1ccc(Cc2ccc(-c3ccc(CN4CCCC(F)C4)cc3)cc2)cc1` (centres unmarked) [Example 39-27], 46 nM; to `Cc1nc(C(N)=O)nn1-c1ccc(Cc2ccc(-c3ccc(CN4CCCN(C)CC4)cc3)cc2)cc1` [Example 39-28], 39 nM. For `Cc1nc(C(N)=O)nn1-c1ccc(Cc2ccc(-c3ccc(CN4C[C@H](O)[C@@H](O)C4)cc3)cc2)cc1` [Example 39-29], in experiment [1] (Homo sapiens, 0.5 h), the AC50 stood at 180 nM. On the same count and under the same terms, the same measure for `Cc1nc(C(N)=O)nn1-c1ccc(Cc2ccc(-c3ccc(CN4C[C@H]5CCN(C)[C@H]5C4)cc3)cc2)cc1` [Example 39-30]: 32 nM; for `Cc1nc(C(N)=O)nn1-c1ccc(Cc2ccc(-c3ccc(CN4CCC(S(C)(=O)=O)CC4)cc3)cc2)cc1` [Example 39-31]: 49 nM; for `Cc1nc(C(N)=O)nn1-c1ccc(Cc2ccc(-c3ccc(CN4CC(F)(F)C4)cc3)cc2)cc1` [Example 39-33]: 42 nM. On to `Cc1nc(C(N)=O)nn1-c1ccc(Cc2ccc(-c3ccc(CN4C[C@@H]5[C@@H](CO)[C@@H]5C4)cc3)cc2)cc1` [Example 39-34], for which the half-maximal activity concentration (AC50) in experiment [1] (Homo sapiens, 0.5 h) came to 10 nM. In the case of `Cc1nc(C(N)=O)nn1-c1ccc(Cc2ccc(-c3ccc(CN4CCC(C(F)(F)F)CC4)cc3)cc2)cc1` [Example 39-35], in experiment [1] (Homo sapiens, 0.5 h), the AC50 amounted to 145 nM. As for `Cc1nc(C(N)=O)nn1-c1ccc(Cc2ccc(-c3ccc(CN4CC(CO)C4)cc3)cc2)cc1` [Example 39-36], the AC50 in experiment [1] (Homo sapiens, 0.5 h) came to 164 nM. For `Cc1cc(C(N)=O)nn1-c1ccc(Cc2ccc(C34CCC(C(=O)N5CCNCC5)(CC3)CC4)cc2)cc1` [Example 42, 5-methyl-1-(4-(4-(4-(piperazine-1-carbonyl)bicyclo[2.2.2]octan-1-yl)benzyl)phenyl)-1H-pyrazole-3-carboxamide], the AC50 in experiment [1] (Homo sapiens, 0.5 h) was determined as 55 nM. As for `Cc1cc(C(N)=O)nn1-c1ccc(Cc2ccc(C34CCC(C(=O)N5CCN(C)CC5)(CC3)CC4)cc2)cc1` [Example 43, 5-methyl-1-(4-(4-(4-(4-methylpiperazine-1-carbonyl)bicyclo[2.2.2]octan-1-yl)benzyl)phenyl)-1H-pyrazole-3-carboxamide], the AC50 in experiment [1] (Homo sapiens, 0.5 h) was 17 nM. Still for that read-out and setting: the same measure for `Cc1nc(C(N)=O)nn1-c1ccc(Cc2ccc(C3CC4(CC(C(=O)N5CCNCC5)C4)C3)cc2)cc1` (centres unmarked) [Example 44, 5-methyl-1-(4-(4-(6-(piperazine-1-carbonyl)spiro[3.3]heptan-2-yl)benzyl)phenyl)-1H-1,2,4-triazole-3-carboxamide]: 134 nM. The same measure, in the same setting: the same measure for `Cc1cc(C(N)=O)nn1-c1ccc(Cc2ccc(-c3ccc(C(C)(C)CO)cn3)cc2)cc1` [Example 57, 1-(4-(4-(5-(1-hydroxy-2-methylpropan-2-yl)pyridin-2-yl)benzyl)phenyl)-5-methyl-1H-pyrazole-3-carboxamide]: 49 nM; for `Cc1cc(C(N)=O)nn1-c1ccc(Cc2ccc(-c3ccc(C(C)(C)O)nn3)cc2)cc1` [Example 58, 1-(4-(4-(6-(2-hydroxypropan-2-yl)pyridazin-3-yl)benzyl)phenyl)-5-methyl-1H-pyrazole-3-carboxamide]: 225 nM. With `Cc1cc(C(N)=O)nn1-c1ccc(Cc2ccc(-c3ccc(C(=O)NCC(C)(C)O)cn3)cc2)cc1` [Example 59, 6-(4-(4-(3-carbamoyl-5-methyl-1H-pyrazol-1-yl)benzyl)phenyl)-N-(2-hydroxy-2-methylpropyl)nicotinamide], the AC50 in experiment [1] (Homo sapiens, 0.5 h) amounted to 58 nM. Regarding `Cc1cc(C(N)=O)nn1-c1ccc(Cc2ccc(-c3cnc(C(C)(C)O)nc3)cc2)cc1` [Example 60, 1-(4-(4-(2-(2-hydroxypropan-2-yl)pyrimidin-5-yl)benzyl)phenyl)-5-methyl-1H-pyrazole-3-carboxamide], the AC50 in experiment [1] (Homo sapiens, 0.5 h) stood at 83 nM.

For the compound `Cc1cc(C(N)=O)nn1-c1ccc(Cc2ccc(-c3ccnc(CO)c3)cc2)cc1` [Example 61, 1-(4-(4-(2-(hydroxymethyl)pyridin-4-yl)benzyl)phenyl)-5-methyl-1H-pyrazole-3-carboxamide], the AC50 in experiment [1] (Homo sapiens, 0.5 h) was determined as 187 nM. For the compound `Cc1nc(C(N)=O)nn1-c1ccc(Cc2ccc(-c3ccc(O[C@H]4CCN(C)C4)cc3)cc2)cc1` [Example 62, (S)-5-methyl-1-(4-((4′-((1-methylpyrrolidin-3-yl)oxy)-[1,1′-biphenyl]-4-yl)methyl)phenyl)-1H-1,2,4-triazole-3-carboxamide], the concentration at half-maximal activity (AC50) in experiment [1] (Homo sapiens, 0.5 h) came to 20 nM. On the same count and under the same terms, to `Cc1nc(C(N)=O)nn1-c1ccc(Cc2ccc(-c3ccc(O[C@@H]4CCN(C)C4)cc3)cc2)cc1` [Example 63, (R)-5-methyl-1-(4-((4′-((1-methylpyrrolidin-3-yl)oxy)-[1,1′-biphenyl]-4-yl)methyl)phenyl)-1H-1,2,4-triazole-3-carboxamide] belongs 11 nM; to `Cc1nc(C(N)=O)nn1-c1ccc(Cc2ccc(-c3ccc(C(C)(C)NCC(C)(C)O)cc3)cc2)cc1` [Example 64, 1-(4-((4′-(2-((2-hydroxy-2-methylpropyl)amino)propan-2-yl)-[1,1′-biphenyl]-4-yl)methyl)phenyl)-5-methyl-1H-1,2,4-triazole-3-carboxamide], 62 nM.
